Holding throughout (assay): biochemical
Holding throughout (parameters): Ubiquigent DUB profiler selectivity panel, remaining enzyme activity as % of control
Holding throughout (settings): read-out: % of control remaining

In experiment [1] the target is T1, OTU1 (Homo sapiens, UniProt Q5VVQ6).
T1 construct: gene YOD1
T1 sequence (Q5VVQ6 1-348): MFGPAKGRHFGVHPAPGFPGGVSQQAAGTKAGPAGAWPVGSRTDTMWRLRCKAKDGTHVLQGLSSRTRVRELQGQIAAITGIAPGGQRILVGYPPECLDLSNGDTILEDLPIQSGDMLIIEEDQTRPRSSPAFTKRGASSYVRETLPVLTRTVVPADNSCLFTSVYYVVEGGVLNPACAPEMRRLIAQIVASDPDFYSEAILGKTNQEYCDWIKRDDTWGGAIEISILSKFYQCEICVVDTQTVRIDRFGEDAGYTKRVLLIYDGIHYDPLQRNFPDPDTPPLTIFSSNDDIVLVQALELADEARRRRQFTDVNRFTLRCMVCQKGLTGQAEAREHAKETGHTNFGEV
A digest of the protocol: (§1)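 CMPD-39 selectivity was profiled at 1-100 μM across >40 DUBs. Cellular engagement used 2 h CMPD-39 pretreatment, then HA-Ub-PA probe for 10 min at 37°C, with USP30 band shift on immunoblot. TOMM20 ubiquitylation was blotted in YFP-PRKN hTERT-RPE1 cells after 1 h antimycin A/oligomycin A (1 μM each).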

Experiment [2] has as its target USP6 (Homo sapiens, UniProt P35125). The method in brief:
as §1

Experiment [3] deals with T2, USP8 (Homo sapiens, UniProt P40818).
T2 sequence (P40818 1-1118): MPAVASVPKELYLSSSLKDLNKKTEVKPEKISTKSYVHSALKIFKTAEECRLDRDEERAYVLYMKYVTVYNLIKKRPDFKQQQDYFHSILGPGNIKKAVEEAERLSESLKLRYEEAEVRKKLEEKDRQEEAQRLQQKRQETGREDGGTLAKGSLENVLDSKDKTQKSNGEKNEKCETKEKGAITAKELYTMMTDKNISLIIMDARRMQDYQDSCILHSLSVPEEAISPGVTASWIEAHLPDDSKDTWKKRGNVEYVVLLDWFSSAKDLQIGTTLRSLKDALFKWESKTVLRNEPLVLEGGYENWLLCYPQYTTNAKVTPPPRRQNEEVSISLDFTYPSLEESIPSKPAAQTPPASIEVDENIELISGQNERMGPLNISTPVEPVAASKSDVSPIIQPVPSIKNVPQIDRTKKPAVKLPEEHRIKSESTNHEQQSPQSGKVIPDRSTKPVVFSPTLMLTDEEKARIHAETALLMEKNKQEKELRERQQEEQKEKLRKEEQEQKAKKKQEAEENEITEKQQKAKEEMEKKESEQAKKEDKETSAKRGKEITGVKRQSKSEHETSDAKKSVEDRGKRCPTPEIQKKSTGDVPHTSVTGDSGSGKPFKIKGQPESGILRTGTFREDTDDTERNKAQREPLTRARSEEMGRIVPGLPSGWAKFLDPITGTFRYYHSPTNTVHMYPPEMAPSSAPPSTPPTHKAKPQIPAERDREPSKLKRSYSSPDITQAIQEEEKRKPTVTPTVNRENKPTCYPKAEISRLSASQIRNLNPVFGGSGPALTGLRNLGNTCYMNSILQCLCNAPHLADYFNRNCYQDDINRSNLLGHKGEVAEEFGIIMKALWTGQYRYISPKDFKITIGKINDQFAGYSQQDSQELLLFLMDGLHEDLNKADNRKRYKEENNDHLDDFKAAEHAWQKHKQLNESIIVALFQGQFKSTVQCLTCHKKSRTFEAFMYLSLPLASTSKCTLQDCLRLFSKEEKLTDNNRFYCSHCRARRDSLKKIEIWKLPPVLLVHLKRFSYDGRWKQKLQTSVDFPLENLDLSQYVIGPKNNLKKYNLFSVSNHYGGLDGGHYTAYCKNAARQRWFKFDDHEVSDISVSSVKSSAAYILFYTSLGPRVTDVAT
A digest of the protocol: as §1

Chain of USP6 (P35125 whole entry): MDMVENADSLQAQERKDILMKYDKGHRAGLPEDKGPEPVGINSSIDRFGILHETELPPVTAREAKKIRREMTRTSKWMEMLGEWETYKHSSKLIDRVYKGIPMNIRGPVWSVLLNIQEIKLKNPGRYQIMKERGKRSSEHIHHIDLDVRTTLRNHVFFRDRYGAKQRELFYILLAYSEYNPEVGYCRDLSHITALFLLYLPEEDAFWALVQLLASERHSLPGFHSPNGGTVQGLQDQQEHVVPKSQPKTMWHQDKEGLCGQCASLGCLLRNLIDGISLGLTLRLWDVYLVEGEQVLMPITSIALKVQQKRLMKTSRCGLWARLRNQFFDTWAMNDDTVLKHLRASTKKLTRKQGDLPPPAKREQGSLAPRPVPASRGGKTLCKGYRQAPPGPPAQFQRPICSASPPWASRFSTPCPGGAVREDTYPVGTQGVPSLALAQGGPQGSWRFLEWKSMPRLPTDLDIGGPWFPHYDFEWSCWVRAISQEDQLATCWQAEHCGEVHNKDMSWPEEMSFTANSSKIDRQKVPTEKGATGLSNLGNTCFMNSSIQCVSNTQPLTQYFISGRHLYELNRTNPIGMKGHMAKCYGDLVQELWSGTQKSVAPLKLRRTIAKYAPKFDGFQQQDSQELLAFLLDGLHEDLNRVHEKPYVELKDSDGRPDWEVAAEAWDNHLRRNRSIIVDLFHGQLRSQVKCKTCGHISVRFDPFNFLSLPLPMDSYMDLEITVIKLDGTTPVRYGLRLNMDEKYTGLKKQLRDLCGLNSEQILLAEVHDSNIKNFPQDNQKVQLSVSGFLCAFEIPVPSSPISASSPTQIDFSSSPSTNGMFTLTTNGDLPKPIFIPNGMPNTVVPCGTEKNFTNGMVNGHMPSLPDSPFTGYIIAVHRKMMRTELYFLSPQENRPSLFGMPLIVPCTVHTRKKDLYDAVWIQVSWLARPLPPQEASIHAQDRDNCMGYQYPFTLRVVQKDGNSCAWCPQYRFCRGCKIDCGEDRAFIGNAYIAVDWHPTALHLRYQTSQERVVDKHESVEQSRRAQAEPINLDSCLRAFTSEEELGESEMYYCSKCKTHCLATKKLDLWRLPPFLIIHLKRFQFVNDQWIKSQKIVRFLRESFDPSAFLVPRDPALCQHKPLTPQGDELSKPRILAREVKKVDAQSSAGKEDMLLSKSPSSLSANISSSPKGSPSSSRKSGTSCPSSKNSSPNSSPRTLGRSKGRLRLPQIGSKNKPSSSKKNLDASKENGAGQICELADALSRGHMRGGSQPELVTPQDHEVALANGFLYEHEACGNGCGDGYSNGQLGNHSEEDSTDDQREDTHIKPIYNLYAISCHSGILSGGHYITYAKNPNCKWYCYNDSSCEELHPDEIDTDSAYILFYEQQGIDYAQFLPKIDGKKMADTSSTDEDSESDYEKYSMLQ

As to `CC(C)(C)NS(=O)(=O)c1ccc(NC(=O)[C@H](Cc2ccccc2)NC(=O)c2ccc(F)cc2)cc1` [compound 39, CMPD-39], the remaining activity at 1 µM in experiment [1] turned out to be 105%; in experiment [2], 101%; in experiment [3] it was 105%. The remaining activity at 10 µM was found to be 97.8% in experiment [1], 96.8% in experiment [2] and 100% in experiment [3]. The remaining activity at 100 µM came to 101% in experiment [1], 90.6% in experiment [2] and 102% in experiment [3].

The values are drawn from publication PMC8645336, “Benchmarking a highly selective USP30 inhibitor for enhancement of mitophagy and pexophagy” (Life Science Alliance, 2021).
